This note sets out measurements from patent US9320276B2, “N-hetarylmethyl pyrazolylcarboxamides” (BAYER INTELLECTUAL PROPERTY GMBH, priority 2010, dated 2016).

By logP is commonly meant the decadic logarithm of the partition coefficient of the neutral form, usually between octanol and water. Higher therefore signals higher lipophilicity.

Structures are written as SMILES.

The subject of one data set is Alternaria solani. In words: in vivo preventive test on Alternaria solani (tomato). The following applies: 500 ppm of active ingredient, evaluated 7 days after inoculation. Put shortly: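 Young tomato plants were sprayed preventively with compound in DMF/alkylarylpolyglycolether diluted in water, then inoculated one day later with A. solani spores. Incubation was 1 day at about 22 °C and 100% RH, then about 20 °C and 96% RH. Efficacy was scored 7 days after inoculation (0% = untreated control, 100% = no disease).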

The test system of data set [1] is Fusarium nivale (var. majus). Briefly: in vivo curative test on Fusarium nivale (wheat). The following applies: 500 ppm of active ingredient, evaluated 5 days after inoculation. Here is the method: Solvent: 49 parts by weight of N,N-dimethylacetamide Emulsifier: 1 part by weight of alkylaryl polyglycol ether To produce a suitable preparation of active compound, 1 part by weight of active compound or active compound combination is mixed with the stated amounts of solvent and emulsifier, and the concentrate is diluted with water to the desired concentration. To test for curative activity, young plants are slightly injured by using a sandblast and afterwards they are sprayed with a conidia suspension of Fusarium nivale (var. majus) and placed for 24 hours in a greenhouse under a translucent incubation cabinet at a temperature of approximately 10° C. and a relative atmospheric humidity of approximately 100% and are subsequently sprayed with the preparation of active compound at the stated rate of application. After the spray coating has been dried, the plants remain in the greenhouse under translucent incubation cloches at a temperature of approximately 10° C. and a relative atmospheric humidity of approximately 100%. The test is evaluated 5 days after the inoculation. 0% means an efficacy which corresponds to that of the untreated control, while an efficacy of 100% means that no disease is observed.

The subject of a further data set is Leptosphaeria nodorum. In words: in vivo preventive test on Leptosphaeria nodorum (wheat). The following applies: 500 ppm of active ingredient, evaluated 7-9 days after inoculation. As to the method: Solvent: 49 parts by weight of N,N-dimethylacetamide Emulsifier: 1 part by weight of alkylaryl polyglycol ether To produce a suitable preparation of active compound, 1 part by weight of active compound is mixed with the stated amounts of solvent and emulsifier, and the concentrate is diluted with water to the desired concentration. To test for preventive activity, young plants are sprayed with a preparation of active compound at the stated rate of application. One day after this treatment, the plants are inoculated with an aqueous spore suspension of Leptosphaeria nodorum. The plants remain for 48 hours in an incubation cabinet at 22° C. and a relative atmospheric humidity of 100%. Then the plants are placed in a greenhouse at a temperature of approximately 22° C. and a relative atmospheric humidity of approximately 90%. The test is evaluated 7-9 days after the inoculation. 0% means an efficacy which corresponds to that of the untreated control, while an efficacy of 100% means that no disease is observed.

Data set [2] in a line: logP by HPLC on reversed-phase column (EEC Directive 79/831 Annex V.A8). In kind it is physicochemical. To be noted: 40° C., 0.1% aqueous formic acid and acetonitrile, linear gradient 10% to 90% acetonitrile. Put shortly: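 Reversed-phase C18 HPLC at 40° C with 0.1% aqueous formic acid/acetonitrile, linear gradient 10% to 90% acetonitrile. LogP obtained from retention time by linear interpolation between successive unbranched alkan-2-ones (3 to 16 carbons) of known logP. Lambda-max taken from UV spectra at 200-400 nm at chromatographic peak maxima.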

Another data set concerns Sphaerotheca fuliginea. Briefly: in vivo preventive test on Sphaerotheca fuliginea (cucumber). The following applies: 500 ppm of active ingredient, evaluated 7 days after inoculation. Put shortly:
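Active compound in DMF with alkylarylpolyglycolether emulsifier, diluted in water and sprayed on young cucumber plants at the stated rate. One day later, plants inoculated with S. fuliginea spore suspension and kept at about 23 °C, 70% RH; efficacy scored 7 days post-inoculation, 0% = untreated, 100% = no disease.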

A further data set relates to Pyrenophora teres. In words: in vivo preventive test on Pyrenophora teres (barley). The following applies: 500 ppm of active ingredient, evaluated 7-9 days after inoculation. The gist of the method:
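Young barley plants sprayed with compound in DMF/alkylaryl polyglycol ether emulsion; inoculated with P. teres spores one day later. 48 h at 22 °C, 100% humidity, then greenhouse ~20 °C, ~80% humidity; efficacy scored 7-9 days post-inoculation, 0% = untreated, 100% = no disease.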

For a further data set, the system named is Venturia inaequalis. Briefly: in vivo preventive test on Venturia inaequalis (apple scab). The following applies: 100 ppm of active ingredient, evaluated 10 days after inoculation. As to the method:
Solvent: 24.5 parts by weight of acetone • 24.5 parts by weight of N,N-dimethylacetamide Emulsifier: 1 part by weight of alkylaryl polyglycol ether To produce a suitable preparation of active compound, 1 part by weight of active compound is mixed with the stated amounts of solvent and emulsifier, and the concentrate is diluted with water to the desired concentration. To test for preventive activity, young plants are sprayed with the preparation of active compound at the stated rate of application. After the spray coating has dried on, the plants are inoculated with an aqueous conidia suspension of the causal agent of apple scab (Venturia inaequalis) and then remain for 1 day in an incubation cabinet at approximately 20° C. and a relative atmospheric humidity of 100%. The plants are then placed in a greenhouse at approximately 21° C. and a relative atmospheric humidity of approximately 90%. The test is evaluated 10 days after the inoculation. 0% means an efficacy which corresponds to that of the untreated control, while an efficacy of 100% means that no disease is observed.

The mark [3] stands for this setting: HPLC on reversed-phase column (C 18).

Turning to `CC(c1cccc2ccsc12)N(C(=O)c1c(C(F)F)nn(C)c1F)C1CC1` (stereo not shown) [Example 91], the Efficacy with Alternaria solani stood at 95%; in data set [1] it was 71%; in the data set with Leptosphaeria nodorum, 100%; in the data set with Sphaerotheca fuliginea it was 88%; in the data set with Pyrenophora teres, 100%; with Venturia inaequalis, 100%. The molecule also showed a logP in data set [2] (setting [3]) of 3.44.
Regarding `CC(C)c1nn(-c2ccccc2)c(Cl)c1CN(C(=O)c1c(C(F)F)nn(C)c1F)C1CC1` [Example 169], the Efficacy is listed as 100% with Alternaria solani; 83% in data set [1]; 100% with Leptosphaeria nodorum; 100% in the data set with Sphaerotheca fuliginea; 100% in the data set on Pyrenophora teres. Besides, in data set [2] (HPLC, reversed-phase column (C 18)), the logP is 3.94.
For `CC(c1cc2ccccc2s1)N(C(=O)c1c(C(F)F)nn(C)c1F)C1CC1` (racemic) [Example 80], the Efficacy in data set [1] was found to be 93%; with Leptosphaeria nodorum it was 100%; in the data set on Sphaerotheca fuliginea, 99%; in the data set on Pyrenophora teres, 100%; in the data set with Venturia inaequalis, 100%. The molecule further gave a logP in data set [2] (setting [3]) of 3.69.
`CC(c1cc2ccccc2o1)N(C(=O)c1c(C(F)F)nn(C)c1F)C1CC1` (racemic) [Example 70]: the Efficacy with Alternaria solani came to 100%; in data set [1] it was 100%; in the data set with Leptosphaeria nodorum it was 83%; with Sphaerotheca fuliginea, 98%; in the data set with Pyrenophora teres, 100%; in the data set with Venturia inaequalis, 100%. Besides, the logP in data set [2] (setting [3]) is 3.42.
`Cn1nc(C(F)F)c(C(=S)N(Cc2cccc3ccsc23)C2CC2)c1F` [Example 95]: the Efficacy came to 95% with Alternaria solani; 86% in data set [1]; 88% in the data set with Sphaerotheca fuliginea; 100% in the data set with Pyrenophora teres; 99% in the data set on Venturia inaequalis. Also, the logP in data set [2] (setting [3]) is 3.83.
Consider `Cc1sc(-c2ccccc2)cc1C(C)N(C(=O)c1c(C(F)F)nn(C)c1F)C1CC1` (stereo not shown) [Example 147], for which the Efficacy in the data set on Alternaria solani was found to be 95%; in data set [1], 92%; in the data set on Leptosphaeria nodorum, 93%; in the data set with Sphaerotheca fuliginea, 88%; in the data set with Pyrenophora teres it was 100%; with Venturia inaequalis it was 100%. In addition, in data set [2] (setting [3]), the logP is on record as 4.41.
Turning to `CC(c1cc(Cl)sc1Cl)N(C(=O)c1c(C(F)F)nn(C)c1F)C1CC1` (stereo not shown) [Example 128], the Efficacy with Alternaria solani came out at 100%; in data set [1], 100%; with Leptosphaeria nodorum, 100%; in the data set with Sphaerotheca fuliginea, 98%; with Pyrenophora teres it was 100%; with Venturia inaequalis, 100%. Besides, the logP in data set [2] (setting [3]) was 4.03.
